Experimental data as given in patent publication US9708314B2, “Heterocyclic amide compound” (NISSAN CHEMICAL INDUSTRIES, LTD., priority 2013, dated 2017).

Columns and labels:
Assay type in all cases: in vivo
[1] = test system: transplanted Oryza sativa; assay: Test Example 1: effect on crop, application before weed generation in submerged conditions; settings: Application herbicide amount 320 g/ha; Seventeenth Table
Procedure, shortened: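 Alluvial soil in Wagner pots flooded to 4 cm water depth; weed seeds sown and 2.5 leaf stage rice seedlings transplanted. Emulsion diluted in water applied to water surface on sowing day at stated g/ha. Greenhouse 25° C. to 30° C.; effects scored 0–5 by herbicidal ratio after three weeks.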

Abutilon theophrasti = assay: Test Example 4: herbicidal effect by application to foliage (diluvial soil, plastic box); settings: application to foliage, application herbicide amount 320 g/ha
Procedure, shortened: (§1)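 Scores run from 0 (herbicidal ratio ≤5%) to 5 (≥90%, almost fully withered) and were assessed three weeks after foliar spraying. Seedlings had been raised for 14 days at 25-30° C in sterilized diluvial soil before treatment, with the emulsion diluted in water to the stated g/ha dose.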

Alopecurus myosuroides = assay: as above; settings: application to foliage, application herbicide amount 320 g/ha
Procedure, shortened: as §1

Amaranthus retroflexus = assay: as above; settings: application to foliage, application herbicide amount 320 g/ha
Procedure, shortened: as §1

Apera spica-venti. = assay: as above; settings: application to foliage, application herbicide amount 320 g/ha
Procedure, shortened: as §1

Avena fatua = assay: as above; settings: application to foliage, application herbicide amount 320 g/ha
Procedure, shortened: as §1

Chenopodium album = assay: as above; settings: application to foliage, application herbicide amount 320 g/ha
Procedure, shortened: as §1

Digitaria ciliaris = assay: as above; settings: application to foliage, application herbicide amount 320 g/ha
Procedure, shortened: as §1

[2] = test system: Echinochloa crus-galli var. crus-galli; assay: as above; settings: application to foliage, application herbicide amount 320 g/ha
Procedure, shortened: as §1

Galium spurium = assay: as above; settings: application to foliage, application herbicide amount 320 g/ha
Procedure, shortened: as §1

Lolium multiflorum Lam. = assay: as above; settings: application to foliage, application herbicide amount 320 g/ha
Procedure, shortened: as §1

Setaria viridis = assay: as above; settings: application to foliage, application herbicide amount 320 g/ha
Procedure, shortened: as §1

Stellaria media = assay: as above; settings: application to foliage, application herbicide amount 320 g/ha
Procedure, shortened: as §1

Veronica persica = assay: as above; settings: application to foliage, application herbicide amount 320 g/ha
Procedure, shortened: as §1

[3] = test system: Beta vulgaris ssp. vulgaris; assay: Test Example 4: effect on crop by application to foliage (diluvial soil, plastic box); settings: application to foliage, application herbicide amount 320 g/ha
Procedure, shortened: as §1

Brassica campestris L. = assay: as above; settings: application to foliage, application herbicide amount 320 g/ha
Procedure, shortened: as §1

Glycine max = assay: as above; settings: application to foliage, application herbicide amount 320 g/ha
Procedure, shortened: as §1

Triticum aestivum = assay: as above; settings: application to foliage, application herbicide amount 320 g/ha
Procedure, shortened: as §1

Zea mays = assay: as above; settings: application to foliage, application herbicide amount 320 g/ha
Procedure, shortened: as §1

[4] = test system: directly sowed Oryza sativa; assay: as above; settings: application to foliage, application herbicide amount 320 g/ha
Procedure, shortened: as §1

| SMILES | a: transplanted Oryza sativa (effect on crop grade) [1] | M: herbicidal effect on Abutilon theophrasti (Abutilon theophrasti) | J: herbicidal effect on Alopecurus myosuroides (Alopecurus myosuroides) | N: herbicidal effect on Amaranthus retroflexus (Amaranthus retroflexus) | L: herbicidal effect on Apera spica-venti. (Apera spica-venti.) | I: herbicidal effect on Avena fatua (Avena fatua) | O: herbicidal effect on Chenopodium album (Chenopodium album) | F: herbicidal effect on Digitaria ciliaris (Digitaria ciliaris) | H: herbicidal effect on Echinochloa crus-galli var. crus-galli [2] | Q: herbicidal effect on Galium spurium (Galium spurium) | K: herbicidal effect on Lolium multiflorum Lam. (Lolium multiflorum Lam.) | G: herbicidal effect on Setaria viridis (Setaria viridis) | P: herbicidal effect on Stellaria media (Stellaria media) | R: herbicidal effect on Veronica persica (Veronica persica) | f: effect on crop, Beta vulgaris ssp. vulgaris [3] | g: effect on crop, Brassica campestris L. (Brassica campestris L.) | d: effect on crop, Glycine max (Glycine max) | e: effect on crop, Triticum aestivum (Triticum aestivum) | c: effect on crop, Zea mays (Zea mays) | b: effect on crop, directly sowed Oryza sativa [4] |
| --- | --- | --- | --- | --- | --- | --- | --- | --- | --- | --- | --- | --- | --- | --- | --- | --- | --- | --- | --- | --- |
| CCSc1nnc2c(C(=O)Nc3nnnn3C)ccc(C(F)(F)F)n12 [2-024] | 5 (Herbicidal ratio of 90% or more (almost completely withered)) | 5 (Herbicidal ratio of 90% or more (almost completely withered)) | 3 (Herbicidal ratio of 40% or more and less than 70%) | 5 (Herbicidal ratio of 90% or more (almost completely withered)) | 5 (Herbicidal ratio of 90% or more (almost completely withered)) | 4 (Herbicidal ratio of 70% or more and less than 90%) | 5 (Herbicidal ratio of 90% or more (almost completely withered)) | 5 (Herbicidal ratio of 90% or more (almost completely withered)) | 5 (Herbicidal ratio of 90% or more (almost completely withered)) | 4 (Herbicidal ratio of 70% or more and less than 90%) | 4 (Herbicidal ratio of 70% or more and less than 90%) | 5 (Herbicidal ratio of 90% or more (almost completely withered)) | 5 (Herbicidal ratio of 90% or more (almost completely withered)) | 5 (Herbicidal ratio of 90% or more (almost completely withered)) | 5 (Herbicidal ratio of 90% or more (almost completely withered)) | 5 (Herbicidal ratio of 90% or more (almost completely withered)) | 5 (Herbicidal ratio of 90% or more (almost completely withered)) | 4 (Herbicidal ratio of 70% or more and less than 90%) | 5 (Herbicidal ratio of 90% or more (almost completely withered)) | 5 (Herbicidal ratio of 90% or more (almost completely withered)) |
| CC(C)Sc1nnc2c(C(=O)Nc3nnnn3C)ccc(C(F)(F)F)n12 [2-025] | 5 (Herbicidal ratio of 90% or more (almost completely withered)) | 5 (Herbicidal ratio of 90% or more (almost completely withered)) | 3 (Herbicidal ratio of 40% or more and less than 70%) | 5 (Herbicidal ratio of 90% or more (almost completely withered)) | 4 (Herbicidal ratio of 70% or more and less than 90%) | 4 (Herbicidal ratio of 70% or more and less than 90%) | 5 (Herbicidal ratio of 90% or more (almost completely withered)) | 5 (Herbicidal ratio of 90% or more (almost completely withered)) | 5 (Herbicidal ratio of 90% or more (almost completely withered)) | 4 (Herbicidal ratio of 70% or more and less than 90%) | 3 (Herbicidal ratio of 40% or more and less than 70%) | 5 (Herbicidal ratio of 90% or more (almost completely withered)) | 5 (Herbicidal ratio of 90% or more (almost completely withered)) | 5 (Herbicidal ratio of 90% or more (almost completely withered)) | 5 (Herbicidal ratio of 90% or more (almost completely withered)) | 4 (Herbicidal ratio of 70% or more and less than 90%) | 4 (Herbicidal ratio of 70% or more and less than 90%) | 3 (Herbicidal ratio of 40% or more and less than 70%) | 1 (Herbicidal ratio of 5% or more and less than 20%) | 5 (Herbicidal ratio of 90% or more (almost completely withered)) |
| CCOCc1nnc2c(C(=O)Nc3nnnn3C)ccc(C(F)(F)F)n12 [2-026] | 4 (Herbicidal ratio of 70% or more and less than 90%) | 5 (Herbicidal ratio of 90% or more (almost completely withered)) | 4 (Herbicidal ratio of 70% or more and less than 90%) | 5 (Herbicidal ratio of 90% or more (almost completely withered)) | 3 (Herbicidal ratio of 40% or more and less than 70%) | 3 (Herbicidal ratio of 40% or more and less than 70%) | 5 (Herbicidal ratio of 90% or more (almost completely withered)) | 5 (Herbicidal ratio of 90% or more (almost completely withered)) | 5 (Herbicidal ratio of 90% or more (almost completely withered)) | 4 (Herbicidal ratio of 70% or more and less than 90%) | 3 (Herbicidal ratio of 40% or more and less than 70%) | 4 (Herbicidal ratio of 70% or more and less than 90%) | 5 (Herbicidal ratio of 90% or more (almost completely withered)) | 5 (Herbicidal ratio of 90% or more (almost completely withered)) | 5 (Herbicidal ratio of 90% or more (almost completely withered)) | 5 (Herbicidal ratio of 90% or more (almost completely withered)) | 5 (Herbicidal ratio of 90% or more (almost completely withered)) | 3 (Herbicidal ratio of 40% or more and less than 70%) | 2 (Herbicidal ratio of 20% or more and less than 40%) | 5 (Herbicidal ratio of 90% or more (almost completely withered)) |
| Cn1nnnc1NC(=O)c1ccc(C(F)(F)F)n2c(C(C)(C)C)nnc12 [2-027] | 4 (Herbicidal ratio of 70% or more and less than 90%) | 5 (Herbicidal ratio of 90% or more (almost completely withered)) | 4 (Herbicidal ratio of 70% or more and less than 90%) | 5 (Herbicidal ratio of 90% or more (almost completely withered)) | 4 (Herbicidal ratio of 70% or more and less than 90%) | 3 (Herbicidal ratio of 40% or more and less than 70%) | 5 (Herbicidal ratio of 90% or more (almost completely withered)) | 5 (Herbicidal ratio of 90% or more (almost completely withered)) | 5 (Herbicidal ratio of 90% or more (almost completely withered)) | 4 (Herbicidal ratio of 70% or more and less than 90%) | 3 (Herbicidal ratio of 40% or more and less than 70%) | 5 (Herbicidal ratio of 90% or more (almost completely withered)) | 5 (Herbicidal ratio of 90% or more (almost completely withered)) | 5 (Herbicidal ratio of 90% or more (almost completely withered)) | 5 (Herbicidal ratio of 90% or more (almost completely withered)) | 4 (Herbicidal ratio of 70% or more and less than 90%) | 1 (Herbicidal ratio of 5% or more and less than 20%) | 3 (Herbicidal ratio of 40% or more and less than 70%) | 0 (Herbicidal ratio of 5% or less (almost no effect)) | 4 (Herbicidal ratio of 70% or more and less than 90%) |
